Assay results from ChEMBL document CHEMBL1146421, “1,3-Dimethylisoguanine, a new purine from the marine sponge Amphimedon viridis” (1997).

Columns and labels:
[1] = Increase in contractions of electrically stimulated guinea pig longitudinal muscle/myenteric plexus at 0.1 mM; type: functional, Cavia porcellus, Muscle tissue
Cavia porcellus = species on record: Cavia porcellus; test: Increase in contractions of electrically stimulated guinea pig longitudinal muscle/myenteric plexus; type: functional, tissue-based; conditions: Muscle tissue
[2] = Increase in contractions of electrically stimulated guinea pig longitudinal muscle/myenteric plexus at 2 mM; type: functional, Cavia porcellus, Muscle tissue

Structure (SMILES)	Activity [1] [%]	Activity (Cavia porcellus)	Activity [2] [%]
C/N=c1\ncn(C)c2c1[nH]c(=O)n2C [CAISSARONE]	80	Dose-dependent effect	
Cn1c(=N)c2nc[nH]c2n(C)c1=O			34
